Experimental findings from patent publication US11986471B2, “Compounds and methods of use” (Tango Therapeutics, Inc., priority 2018, dated 2024) are described below.

Test [1] addresses T1, PRMT5 (Homo sapiens, UniProt O14744).
T1 construct: purchased Viva (custom protein)
The test is described as follows: PRMT5 IC50 assay with no cofactor. Format: biochemical. The conditions noted are these: read-out: No Co-factor IC50. An outline of the steps: (§1)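 IC50 values were measured against human PRMT5 with SAM, with MTA, or with no cofactor. Ki was derived from IC50 as Ki=IC50/1.5 with SAM and Ki=IC50/13.5 with MTA, and the Ki(SAM)/Ki(MTA) ratio was then taken.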

Test [2] deals with T1, PRMT5. The test is described as follows: PRMT5 IC50 assay in the presence of MTA as cofactor. The class given is biochemical. The conditions noted are these: for IC50: PRMT5, MTA as cofactor; for SAM/MTA Ratio: ratio between Ki in the presence of SAM and Ki in the presence of MTA. An outline of the steps:
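Ki conversion: SAM arm, Ki=IC50/1.5; MTA arm, Ki=IC50/13.5. No-cofactor arm reported as IC50 only. Selectivity expressed as Ki(SAM)/Ki(MTA).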

In a further test the test system is HAP1 MTAP-intact. The test can be described thus: SDMA in-cell western assay, HAP1 MTAP-intact cell line. Format: cell-based. As to conditions: Homo sapiens. Summed up: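 Symmetric dimethylarginine (SDMA) levels were measured by in-cell western in an isogenic HAP1 pair, one expressing endogenous MTAP and one MTAP-null, and IC50 values were derived for each line. Compounds whose IC50 ratio between the lines is 3-fold or more are classed as MTAP-selective.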

The subject of the next test is HAP1 MTAP-deleted. The test is described as follows: SDMA in-cell western assay, HAP1 MTAP-deleted cell line. The class given is cell-based. As to conditions: for IC50: Homo sapiens, HAP1 MTAP-deleted cell line; for MTAP Intact/Deleted Ratio: IC50 ratio HAP1 MTAP-intact / HAP1 MTAP-deleted. Summed up: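 Symmetric dimethylarginine (SDMA) levels were measured by in-cell western in MTAP-null HAP1 cells, one half of an MTAP-isogenic pair whose partner line expresses endogenous MTAP. Compound potency is reported as IC50.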

Test [3] has as its target T1, PRMT5. The test can be described thus: PRMT5 IC50 assay in the presence of SAM as cofactor. Format: biochemical. An outline of the steps: as §1

T1 sequence (O14744 whole entry): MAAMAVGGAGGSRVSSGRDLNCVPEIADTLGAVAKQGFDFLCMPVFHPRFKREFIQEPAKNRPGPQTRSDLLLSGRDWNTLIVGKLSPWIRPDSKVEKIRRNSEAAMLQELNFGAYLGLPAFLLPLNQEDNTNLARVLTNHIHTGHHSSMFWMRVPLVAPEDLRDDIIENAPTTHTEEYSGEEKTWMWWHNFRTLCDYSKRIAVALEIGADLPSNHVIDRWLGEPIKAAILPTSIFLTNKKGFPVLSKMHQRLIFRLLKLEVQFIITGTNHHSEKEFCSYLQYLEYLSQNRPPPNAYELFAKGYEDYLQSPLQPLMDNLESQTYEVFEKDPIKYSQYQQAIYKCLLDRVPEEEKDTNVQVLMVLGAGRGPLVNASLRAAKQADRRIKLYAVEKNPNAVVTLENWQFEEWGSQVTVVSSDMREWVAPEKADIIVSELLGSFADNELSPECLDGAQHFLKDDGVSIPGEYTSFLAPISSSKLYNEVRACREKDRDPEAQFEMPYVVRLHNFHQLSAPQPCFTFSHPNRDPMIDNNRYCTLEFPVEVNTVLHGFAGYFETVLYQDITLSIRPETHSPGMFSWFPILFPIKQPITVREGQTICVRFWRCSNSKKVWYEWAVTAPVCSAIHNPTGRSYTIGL
T1 sequence (Q9BQA1 whole entry partner): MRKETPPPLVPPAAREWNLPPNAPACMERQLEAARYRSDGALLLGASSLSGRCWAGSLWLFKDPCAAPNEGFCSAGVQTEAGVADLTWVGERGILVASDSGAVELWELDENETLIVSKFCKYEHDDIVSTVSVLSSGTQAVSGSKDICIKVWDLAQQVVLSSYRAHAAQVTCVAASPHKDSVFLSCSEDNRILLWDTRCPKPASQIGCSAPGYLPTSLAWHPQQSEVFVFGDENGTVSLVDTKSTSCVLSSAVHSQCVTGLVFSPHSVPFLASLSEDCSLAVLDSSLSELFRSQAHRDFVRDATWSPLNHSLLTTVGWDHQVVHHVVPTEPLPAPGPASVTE

In the case of `Cc1ncoc1COc1ccc2c(c1Br)CCN(C[C@@H](O)CNC(=O)c1cc(NC3CCCC3)ncn1)C2` [Compound 358, (S)—N-(3-(5-bromo-6-((4-methyloxazol-5-yl)methoxy)-3,4-dihydroisoquinolin-2(1H)-yl)-2-hydroxypropyl)-6-(cyclopentylamino)pyrimidine-4-carboxamide], the IC50 on PRMT5 [1] was at least 5 µM; on PRMT5 [2] it was 0.5 to 5 µM; with HAP1 MTAP-intact, at least 10 µM; in the test with HAP1 MTAP-deleted, at least 10 µM; on PRMT5 [3], 0.5 to 5 µM. Also, the “SAM/MTA Ratio” value on PRMT5 [2] was “A (a Ki ratio greater than or equal to 10 fold between the Ki in the presence of SAM and the Ki in the presence of MTA)”. Also, the “MTAP Intact/Deleted Ratio” value with HAP1 MTAP-deleted is “C* (an IC50 ratio of less than 3 fold between the IC50 in the HAP1 MTAP-intact cell line and the HAP1 MTAP-deleted cell line)”.

Consider `O=C(NC[C@H](O)CN1CCc2c(ccc(OCc3cnco3)c2Br)C1)c1ccnc(NC2CCC2)c1` [Compound 255, N-[(2S)-3-[5-bromo-6-(oxazol-5-ylmethoxy)-3,4-dihydro-1H-isoquinolin-2-yl]-2-hydroxy-propyl]-2-(cyclobutylamino)pyridine-4-carboxamide], for which the half-maximal inhibitory concentration (IC50) on PRMT5 [1] is at least 5 µM; on PRMT5 [2], 0.05 to 0.5 µM; in the test on HAP1 MTAP-intact it was at least 10 µM; with HAP1 MTAP-deleted, at least 10 µM; at PRMT5 [3], 0.5 to 5 µM. For the same molecule, the “SAM/MTA Ratio” value on PRMT5 [2] was “A (a Ki ratio greater than or equal to 10 fold between the Ki in the presence of SAM and the Ki in the presence of MTA)”. Besides, in the test with HAP1 MTAP-deleted, the “MTAP Intact/Deleted Ratio” value is “C* (an IC50 ratio of less than 3 fold between the IC50 in the HAP1 MTAP-intact cell line and the HAP1 MTAP-deleted cell line)”.

A word on the IC50: it is the point on the concentration scale where inhibition reaches its midpoint.
